# Measured values published in article PMC6999911, “New 2-Ethylthio-4-methylaminoquinazoline derivatives inhibiting two subunits of cytochrome bc1 in Mycobacterium tuberculosis” (PLoS Pathogens, 2020).
# Columns and labels:
# Type in all cases: cell-based, Mycobacterium tuberculosis
# QuinR mutant strains = tested on: QuinR mutant strains
# [1] = tested on: QuinR-M3 (QcrB Gly175Ser)
# [2] = tested on: QuinR-M1 (QcrA Leu356Val)
# [3] = tested on: QuinR-M2 (QcrB Trp312Gly)
# H37Rv-Rv1777(R145S) = tested on: H37Rv-Rv1777(R145S)
# [4] = tested on: complemented mutant (ΔcydAB)
# M. tb H37Rv ΔcydKO A317V = tested on: M. tb H37Rv ΔcydKO A317V
Compound,ATP depletion in QuinR mutants (QuinR mutant strains),fold-change MIC compared to H37Rv (QuinR-M3) [1] [fold-change],fold-change MIC compared to H37Rv (QuinR-M1) [2] [fold-change],fold-change MIC compared to H37Rv (QuinR-M2) [3] [fold-change],"fold change in the MIC, H37Rv-Rv1777(R145S) (H37Rv-Rv1777(R145S)) [fold]",static or cidal activity by CFU enumeration [4],basal respiration after compound addition (M. tb H37Rv ΔcydKO A317V)
COc1nc2ccc(Br)cc2cc1[C@@H](c1ccccc1)[C@@](O)(CCN(C)C)c1cccc2ccccc12 [BDQ],Significant ATP depletion,–,–,–,–,–,–
CCSc1nc(NC)c2ccccc2n1 [Compound 11626141],–,92,59,1489,≤ 3,–,–
CCNc1nc(SCC)nc2ccccc12 [Compound 11626142],–,34,39,1111,≤ 3,–,–
CCSc1nc(NC)c2cccc(F)c2n1 [Compound 11626252],low-level ATP depletion,61,25,1470,≤ 3,bacteriostatic effect is restored,did not cause a deviation in basal respiration
CCSc1nc(NC)c2ccc(F)c(F)c2n1 [Compound 11726148],–,142,100,224,–,–,–
"CCc1nc2ccc(Cl)cn2c1C(=O)NCc1ccc(N2CCC(c3ccc(OC(F)(F)F)cc3)CC2)cc1 [Compound Q203, Telacebec, reference compound]",Significant ATP depletion,191,669,742,–,–,–
"Cc1c(OCC(F)(F)F)ccnc1CSc1nc2ccccc2[nH]1 [LPZs, lansoprazole sulfide, reference compound]",–,1,> 71,> 71,–,–,–
